# Source: US4433147A, “Process for preparing 10-deazaminopterins” (priority 1982, dated 1984)
# Values joined by “and” are separate entries in the source; they are usually repeats but may differ in a detail not shown here. Equal entries are not always repeated. Where two headings read alike, the source gives them in different places.
# Key:
# [1] = system: L1210 leukemia; test: L1210 leukemia in BD (2) F1 female mice, i.p., 10-alkyl derivatives (Example 9, Table II); conditions: for AST / ILS: every two days times five; for antileukemic activity compared with methotrexate: on a similar dosage level
# [2] = system: Streptococcus faecium; conditions: DeGraw et al., J. Heterocyclic Chem. 8 105 (1971); cited from earlier work
# [3] = in vivo; conditions: read-out: acute LD50
# [4] = Plasma and tissue (tumor, small intestine and marrow) pharmacokinetics; format: in vivo; conditions: for Plasma and tissue pharmacokinetics: small intestine and marrow, dAM versus MTX
# [5] = system: P815 ascites
# Description: (§1) ^1 One dose (s.c.) every 2 days for a total of 5 doses.
# (§2) MST = Median survival time ± standard deviation.
# ILS = Increased life span.
# Each dosage tested twice.
# [6] = system: Ehrlich ascites
# Description: as §1
# (§3) ^2 Toxic animals weigh 13-15 g at death (original weight 20 g).
# as §2
# ILS = Increased life span.
# [7] = system: dihydrofolic reductase; conditions: cited from earlier work
# [8] = system: L1210 leukemia; test: L1210 leukemia in BD (2) F1 female mice, i.p., increase in median life span (Example 8, Table I); conditions: for Weight change / Increased life span / Median life span: three times per week
# [9] = system: ascites tumor systems; test: Ascites tumor systems, summary of Examples 10 to 13; format: in vivo, mice; conditions: all of the ascites tumor systems examined
# [10] = system: carrier in tumor; test: membrane transport by carrier in tumor; format: cell-based
# [11] = system: S180-J ascites
# Description: as §1, §3, §2
# ILS = Increased life span.
# Each dose tested 2 to 3 times.
# [12] = system: L1210 ascites
# Description: ^1 One dose every 2 days for a total of 5 doses.
# ^2 Animals weigh 13-15 g at death (original weight 20 g).
# as §2
# ILS = increased life span.
# Each dose tested 2 to 4 times.
# [13] = 6.0 mg/kg oral every 2 days × 5
compound,measurement,setting,value
"CC(Cc1cnc2nc(N)nc(N)c2n1)c1ccc(C(=O)N[C@@H](CCC(=O)O)C(=O)O)cc1 (stereo partly shown) [10-methyl-10-deazaminopterin, 10-Methyl-10-deazaminopterin]",AST,[1]; 12 mg/kg i.p.,18.1 ± 1.9 days
same,ILS,[1]; 12 mg/kg i.p.,+170%
same,AST,[1]; 18 mg/kg i.p.,22.2 ± 1.6 days
same,ILS,[1]; 18 mg/kg i.p.,+230%
same,life span of the test mice,[1]; i.p.,very considerably increased
same,Toxicity,"[1]; maximum dose, about 22 mg/kg, i.p.",slight toxicity
same,antileukemic activity compared with methotrexate,[1]; i.p.,superior to methotrexate
CCC(Cc1cnc2nc(N)nc(N)c2n1)c1ccc(C(=O)N[C@@H](CCC(=O)O)C(=O)O)cc1 (stereo partly shown) [10-ethyl-10-deazaminopterin],AST,[1]; 12 mg/kg i.p.,18.3 ± 1.7 days
same,ILS,[1]; 12 mg/kg i.p.,+172%
same,AST,[1]; 18 mg/kg i.p.,21.8 ± 1.4 days
same,ILS,[1]; 18 mg/kg i.p.,+220%
same,life span of the test mice,[1]; i.p.,very considerably increased
same,antileukemic activity compared with methotrexate,[1]; i.p.,superior to methotrexate
Nc1nc2ncc(CCc3ccc(C(=O)O)cc3)nc2c(=O)[nH]1 [10-deazapteroic acid],growth-inhibitory activity,[2],potent growth-inhibitory activity
"CN(Cc1cnc2nc(N)nc(N)c2n1)c1ccc(C(=O)N[C@@H](CCC(=O)O)C(=O)O)cc1 [Methotrexate, reference compound]",LD50,[3]; ip or sc,96 mg/kg
same,Plasma and tissue pharmacokinetics,[4],similar
same,MST (median survival time),[5]; 6 mg/kg s.c. every 2 days × 5,15.4 ± 1.1 days
same,Toxic Deaths,[5]; 6 mg/kg s.c. every 2 days × 5,0/10
same,MST (median survival time),[5]; 9 mg/kg s.c. every 2 days × 5,17.6 ± 1.6 days
same,Toxic Deaths,[5]; 9 mg/kg s.c. every 2 days × 5,0/10
same,MST (median survival time),[5]; 12 mg/kg s.c. every 2 days × 5,18.4 ± 1.3 days
same,Toxic Deaths,[5]; 12 mg/kg s.c. every 2 days × 5,0/10
same,MST (median survival time),[6]; 6 mg/kg s.c. every 2 days × 5,19.8 ± 2.3 days
same,Toxic Deaths,[6]; 6 mg/kg s.c. every 2 days × 5,0/10
same,MST (median survival time),[6]; 9 mg/kg s.c. every 2 days × 5,20.8 ± 3.0 days
same,Toxic Deaths,[6]; 9 mg/kg s.c. every 2 days × 5,0/10
same,MST (median survival time),[6]; 12 mg/kg s.c. every 2 days × 5,20.2 ± 1.9 days
same,Toxic Deaths,[6]; 12 mg/kg s.c. every 2 days × 5,0/10
same,dihydrofolic reductase inhibition,[7],powerful dihydrofolic reductase inhibitors
same,Weight change,[8]; 3.0 mg/kg i.p.,+8%
same,Toxicity,[8]; 6.0 mg/kg i.p.,Slight toxicity
same,Weight change,[8]; 6.0 mg/kg i.p.,+3%
"Nc1nc(N)c2nc(CCc3ccc(C(=O)N[C@@H](CCC(=O)O)C(=O)O)cc3)cnc2n1 [10-deazaminopterin, 10-Deazaminopterin]",activity compared with methotrexate,[9],more active than methotrexate
same,LD50,[3],65 mg/kg
same,persistence of exchangeable drug in tumor,"[4]; optimum dosages, dAM over MTX",greater persistence
same,Plasma and tissue pharmacokinetics,[4],similar
same,competition for carrier mechanism,[10]; dAM and MTX,compete for the same carrier mechanism
same,affinity of carrier in tumor,[10]; dAM versus MTX,greater affinity
same,saturability (Km) for influx,"[10]; membrane transport in tumor, dAM versus MTX",favoring greater accumulation of dAM
same,ILS (increased life span),[11]; 3 mg/kg s.c. every 2 days × 5,8.7%
same,MST (median survival time),[11]; 3 mg/kg s.c. every 2 days × 5,13.0 ± 1.1 days
same,ILS (increased life span),[11]; 6 mg/kg s.c. every 2 days × 5,74.8%
same,MST (median survival time),[11]; 6 mg/kg s.c. every 2 days × 5,21.2 ± 1.7 days
same,ILS (increased life span),[11]; 9 mg/kg s.c. every 2 days × 5,117.3%
same,MST (median survival time),[11]; 9 mg/kg s.c. every 2 days × 5,26.3 ± 0.7 days
same,60 day survivors,[11]; 12 mg/kg s.c. every 2 days × 5,Two
same,ILS (increased life span),[11]; 12 mg/kg s.c. every 2 days × 5,> 159.6%
same,MST (median survival time),[11]; 12 mg/kg s.c. every 2 days × 5,> 31.4 ± 2.5 days
same,ILS (increased life span),[11]; 18 mg/kg s.c. every 2 days × 5,54.0%
same,MST (median survival time),[11]; 18 mg/kg s.c. every 2 days × 5,18.6 ± 2.4 days
same,long-term survivors,"[11]; against S180, s.c.",long-term survivors
same,Maximum ILS,"[11]; against S180, s.c., q2d×5",> +160%
same,Toxic Deaths,"[11]; mouse, in vivo",0/10 and 0/15 and 7/10
same,ILS (increased life span),[5]; 6 mg/kg s.c. every 2 days × 5,107.6%
same,MST (median survival time),[5]; 6 mg/kg s.c. every 2 days × 5,18.2 ± 1.3 days
same,ILS (increased life span),[5]; 9 mg/kg s.c. every 2 days × 5,116.3%
same,MST (median survival time),[5]; 9 mg/kg s.c. every 2 days × 5,19.0 ± 0.9 days
same,ILS (increased life span),[5]; 12 mg/kg s.c. every 2 days × 5,118.4%
same,MST (median survival time),[5]; 12 mg/kg s.c. every 2 days × 5,19.2 ± 1.2 days
same,Maximum ILS,"[5]; against P815, s.c., q2d×5",+117%
same,Toxic Deaths,"[5]; mouse, in vivo",0/10
same,ILS (increased life span),[12]; 3 mg/kg oral every 2 days × 5,77%
same,MST (median survival time),[12]; 3 mg/kg oral every 2 days × 5,11.7 ± 1.0 days
same,ILS (increased life span),[12]; 3 mg/kg s.c. every 2 days × 5,108%
same,MST (median survival time),[12]; 3 mg/kg s.c. every 2 days × 5,13.8 ± 0.7 days
same,ILS (increased life span),[12]; [13],122%
same,MST (median survival time),[12]; [13],14.7 ± 1.3 days
same,ILS (increased life span),[12]; 6 mg/kg s.c. every 2 days × 5,131%
same,MST (median survival time),[12]; 6 mg/kg s.c. every 2 days × 5,15.2 ± 1.5 days
same,ILS (increased life span),[12]; 9 mg/kg s.c. every 2 days × 5,168%
same,MST (median survival time),[12]; 9 mg/kg s.c. every 2 days × 5,17.8 ± 0.8 days
same,ILS (increased life span),[12]; 12 mg/kg s.c. every 2 days × 5,176%
same,MST (median survival time),[12]; 12 mg/kg s.c. every 2 days × 5,18.2 ± 1.3 days
same,Maximum ILS,"[12]; against L1210, orally, same dosage and schedule",+122%
same,Maximum ILS,"[12]; against L1210, s.c., q2d×5",+172%
same,Maximum ILS,[12]; ip,+203%
same,Toxic Deaths,"[12]; mouse, in vivo",0/10 and 0/15 and 1/15 and 0/20
same,ILS (increased life span),[6]; 6 mg/kg s.c. every 2 days × 5,34.8%
same,MST (median survival time),[6]; 6 mg/kg s.c. every 2 days × 5,23.2 ± 1.8 days
same,ILS (increased life span),[6]; 9 mg/kg s.c. every 2 days × 5,58.1%
same,MST (median survival time),[6]; 9 mg/kg s.c. every 2 days × 5,27.2 ± 2.2 days
same,ILS (increased life span),[6]; 12 mg/kg s.c. every 2 days × 5,64.0%
same,MST (median survival time),[6]; 12 mg/kg s.c. every 2 days × 5,28.2 ± 2.9 days
same,Maximum ILS,"[6]; against Ehrlich, s.c., q2d×5",+61%
same,Toxic Deaths,"[6]; mouse, in vivo",0/10
same,Increased life span,[8]; 0.1875 mg/kg i.p.,3.0%
same,Median life span,[8]; 0.1875 mg/kg i.p.,7.2 ± 0.6 days
same,Weight change,[8]; 0.1875 mg/kg i.p.,+10%
same,Increased life span,[8]; 0.375 mg/kg i.p.,29.7%
same,Median life span,[8]; 0.375 mg/kg i.p.,8.9 ± 1.0 days
same,Weight change,[8]; 0.375 mg/kg i.p.,+7%
same,Increased life span,[8]; 3.0 mg/kg i.p.,164.8%
same,Median life span,[8]; 3.0 mg/kg i.p.,13.0 ± 1.9 days
same,Weight change,[8]; 3.0 mg/kg i.p.,+5%
same,Toxicity,[8]; 6.0 mg/kg i.p.,slight toxicity
same,Increased life span,[8]; 6.0 mg/kg i.p.,210.0%
same,Median life span,[8]; 6.0 mg/kg i.p.,21.8 ± 1.5 days
same,Weight change,[8]; 6.0 mg/kg i.p.,-3%
same,life span of the test mice,[8]; i.p.,very considerably increased
same,antileukemic activity compared with methotrexate,"[8]; on a similar dosage level, i.p.",superior to methotrexate
